Like-named read-outs stand apart in the source and are kept apart here.
What was measured:
P. falciparum [1] = assay: WHO screening against P. falciparum (Table 1); assay type: cell-based; conditions: Plasmodium falciparum; Table 1, WHO screening
Text: (§1) Compound A1 was screened against Trypanosoma brucei by World Health Organization (Switzerland) using its established screening service.

P. falciparum [2] = assay: Screening against P. falciparum (Table 2); assay type: cell-based, Plasmodium falciparum
human cell line (MRC-5) = assay: Cytotoxicity assay on a human cell line (MRC-5); assay type: cell-based; conditions: read-out: Cytox
T. brucei rhodesiense [3] = assay: WHO screening against Trypanosoma brucei (Table 1); assay type: cell-based; conditions: read-out: IC50 T. brucei rhodesiense
Text: as §1

T. cruzi [4] = assay: WHO screening against T. cruzi (Table 1); assay type: cell-based, Trypanosoma cruzi; conditions: Table 1, WHO screening
L-6 mammalian cells = assay: Cytotoxicity assay on L-6 mammalian cells; assay type: cell-based
T. cruzi [5] = assay: Screening against T. cruzi (Table 2); assay type: cell-based, Trypanosoma cruzi
T. brucei rhodesiense [6] = assay: Screening against T. brucei rhodesiense (Table 2); assay type: cell-based, Trypanosoma brucei rhodesiense
[7] = tested on: Leishmania donovani MHOM/ET/67/L82; assay: Leishmania donovani amastigotes in primary peritoneal mouse macrophages, parasite growth after 96 hours; assay type: cell-based; conditions: 96 hours of incubation, read-out: IC50 L. donovani
Experimental: One strain of Leishmania spp. (Leishmania.donovani MHOM/ET/67/L82) is used. The strain is maintained in the hamster. Amastigotes are collected from the spleen of an infected hamster and spleen parasite burden is assessed using the Stauber technique or amastigotes are counted in the haemocytometer after 1:100 dilution in trypan blue.
Primary peritoneal mouse (CDI or NMRI) macrophages are collected 1 day after a macrophage production stimulation with an i.p injection of 2 ml of 2% starch in distilled water. All cultures and assays are conducted at 37° C. under an atmosphere of 5% CO2. Ten mg/ml compound stock solutions are prepared as advised by the supplier, otherwise dissolved in 100% DMSO. Stock solutions are kept at 4° C. for a maximum of 2 weeks, thereafter at −20° C. The compounds are pre-diluted to 1 mg/ml. Assays are performed in sterile 16-well tissue culture slides, each well containing 100 μl of the compound dilutions together with 100 μl of macrophage/parasite inoculum (4×10^5 macrophages/ml and 1.2×10^6 parasites/ml). The inoculum is prepared in RPMI-1640 medium, supplemented with 10% heat inactivated fetal calf serum. […] After 96 hours of incubation, parasite growth is microscopically assessed after staining the cells with a 10% Giemsa solution. The results are expressed as IC50 calculated by linear regression analysis. […]

sleeping sickness = conditions: cited from earlier work
[8] = Trypanosoma brucei, RHODESIENSE

For `CCN(CC)CCCC(C)Nc1ccnc2cc(Cl)ccc12` (stereo not shown) [Chloroquine], the IC50 (P. falciparum [1]) was 14 nM and the IC50 (P. falciparum [2]; Plasmodium falciparum) was 5 nM.

`O[C@@H]1[C@@H](O)[C@H](Sc2ccccc2)O[C@@H]2CO[C@@H](c3ccccc3)O[C@@H]12` [Compound A1] showed an IC50 (human cell line (MRC-5)) greater than 32000 nM, an IC50 (T. brucei rhodesiense [3]; Table 1, WHO screening) of 187 nM and an IC50 (T. cruzi [4]) greater than 32000 nM.

In the case of `OC1C(Cc2ccccc2)OC2COC(c3ccc(Cl)cc3)OC2C1O` (stereo not shown) [Compound A3], the IC50 (L-6 mammalian cells) is reported as 60000 nM, the IC50 (P. falciparum [2]) is reported as greater than 13300 nM and the IC50 (T. cruzi [5]) is reported as 14300 nM. The IC50 (T. brucei rhodesiense [6]) was 20400 nM and the IC50 [7] was less than 980 nM.

In the case of `Nc1nc(N)nc(Nc2ccc([As]3SCC(CO)S3)cc2)n1` (stereo not shown) [Melarsoprol], the IC50 (T. brucei rhodesiense [6]; [8]) is given as 10 nM, the “patients treated killed outright” value (sleeping sickness; patients, injected) is given as 3–10% and the “patients the drug fails to cure” value (sleeping sickness; some areas of Africa (Omugo, Uganda; Ibba, South Sudan)) is given as 25–30%.

In the case of `CCCCCCCCCCCCCCCCOP(=O)([O-])OCC[N+](C)(C)C` [Miltefosine], the IC50 ([7]; Leishmania donovani, Macrophage) is reported as 470 nM.

In the case of `CC1CS(=O)(=O)CCN1/N=C/c1ccc([N+](=O)[O-])o1` (stereo not shown) [Nifurtimox], the IC50 (T. cruzi [4]; Trypanosoma cruzi) is reported as 1240 nM.

Compound `Cc1ccc(C(=O)Nc2ccc(S(=O)(=O)O)c3cc(S(=O)(=O)O)cc(S(=O)(=O)O)c23)cc1NC(=O)c1cccc(NC(=O)Nc2cccc(C(=O)Nc3cc(C(=O)Nc4ccc(S(=O)(=O)O)c5cc(S(=O)(=O)O)cc(S(=O)(=O)O)c45)ccc3C)c2)c1` [Suramin] has an IC50 (T. brucei rhodesiense [3]; [8]) of 210 nM.
